In PubChem BioAssay (NCI):
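Dose response: 5 concentrations. Exposure: 48 h. Format: 96-well plates. Endpoint: linear interpolation; highest concentration if not reached. TGI: concentration producing complete growth inhibition.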

How the values were obtained:
Assay in all cases: NCI-60 cell line screen, 48 h
UACC-62 melanoma = system: UACC-62 melanoma
SK-MEL-5 melanoma = system: SK-MEL-5 melanoma
U251 CNS = system: U251 CNS
CCRF-CEM leukemia = system: CCRF-CEM leukemia
CAKI-1 renal = system: CAKI-1 renal
NCI-H460 lung = system: NCI-H460 lung
K-562 leukemia = system: K-562 leukemia
SR leukemia = system: SR leukemia
UACC-257 melanoma = system: UACC-257 melanoma
PC-3 prostate = system: PC-3 prostate

Row | SMILES | TGI (UACC-62 melanoma) [µM] | TGI (SK-MEL-5 melanoma) [µM] | TGI (U251 CNS) [µM] | TGI (CCRF-CEM leukemia) [µM] | TGI (CAKI-1 renal) [µM] | TGI (NCI-H460 lung) [µM] | TGI (K-562 leukemia) [µM] | TGI (SR leukemia) [µM] | TGI (UACC-257 melanoma) [µM] | TGI (PC-3 prostate) [µM]
1 | C=CCOc1ccc(C2(O)c3ccccc3C3=NCCCN32)cc1 (stereo not given) | > 57 | 45.7 | > 100 | > 100 | > 100 | > 100 | > 87.2 | > 78.8 | 52.7 | > 100
2 | Nc1[nH]nc2nc3ccc(C(F)(F)F)cc3nc12 | 69.1 | > 100 | > 100 | 37.9 | > 100 | 52.9 | > 100 | > 100 | 45.4 | > 100
3 | C=CCOc1ccc(C2C(C(=O)OCC)C(=O)CC(C)(O)C2C(=O)OCC)cc1OC (stereo not given) | > 100 | > 100 | > 100 | > 100 | > 100 | > 100 | > 100 | > 100 | > 100 | > 100
4 | CC(C)NC(=O)OCCN=c1c2ccccc2ccc2ccccc12 | > 100 | 35.8 | > 100 | 62.5 | > 100 | > 100 | > 100 | 80.6 | > 100 | 72.5
5 | CC12CCC(O)CC1CCC1C2CCC2(C)C(C(=O)CC(O)C(F)(F)F)CCC12 (stereo not given) | > 100 | > 100 | > 100 | > 93.1 | > 62.3 | > 100 | 17.4 | 11.2 | > 91.6 | > 100
6 | CC(=O)O[C@H]1CC[C@@]2(C)C(=CC[C@H]3[C@@H]4C[C@H](N5CCOCC5)[C@H](OC(C)=O)[C@@]4(C)CC[C@@H]32)C1 | > 100 | > 100 | > 100 | > 100 | > 100 | > 100 | > 100 | > 100 | > 100 | > 100
7 | CC1CCCC(CC(=O)O)(CC(=O)O)C1 (stereo not given) | > 100 | > 100 | > 100 | > 100 | > 100 | > 100 | > 100 | > 100 | > 100 | > 100
8 | C[N+]12CCCCC1C(CN1C(=O)Cc3c4ccccc4c(c4ccccc34)CC1=O)CCC2 (stereo not given) | > 100 | > 100 | > 100 | > 100 | > 100 | > 100 | > 100 | > 100 | > 100 | > 100
9 | CC(=O)NC1c2ccccc2C(C)(C)C12CCC1(CC2)OCCO1 (stereo not given) | > 100 | > 100 | > 100 | > 100 | > 100 | > 10 | > 100 | > 100 | > 100 | > 100
10 | CC(=O)[C@@]1(O)CC[C@H]2[C@@H]3C[C@H](C)C4=CC(=O)C=C[C@]4(C)[C@@]3(F)[C@@H](O)C[C@@]21C | > 100 | > 100 | > 100 | > 100 | > 100 | > 100 | > 100 | > 100 | > 100 | > 100
11 | C=C1C(=O)C=C[C@]2(C)CC[C@H]3C(=C)C(=O)O[C@@H]3[C@@H]12 | 4.29 | 5.93 | 5.75 | > 100 | 8.53 | 33.1 | 4.24 | 6.11 | 10.5 | 15.7
12 | CCNC(=O)Nc1cccc(NC(=O)NCC)n1 | > 100 | > 100 | > 100 | > 100 | > 100 | > 100 | > 100 | > 100 | > 100 | > 100
13 | O=[N+]([O-])/C(C(Cl)=C(Cl)Cl)=C(\N1CCCCC1)n1cncn1 | 33 | 25.3 | 29.7 | > 100 | 25.2 | 72.1 | > 100 | > 100 | 36.6 | 31.7
14 | CN1COCc2c1ccc1cc3ccc4c(c3nc21)COCN4S(C)(=O)=O | > 100 | > 100 | > 100 | > 100 | > 100 | > 100 | > 100 | > 100 | > 100 | > 100
15 | Cc1nc2sc3ccccc3n2c(=O)c1N=Nc1ccc(Cl)cc1 | > 100 | > 100 | > 100 | > 100 | > 100 | > 100 | > 100 | > 100 | > 100 | > 100
16 | O=c1oc2ccc([N+](=O)[O-])cc2c(Nc2ccc3c(c2)Oc2ccccc2O3)c1[N+](=O)[O-] | > 100 | 76 | 38.7 | 84.7 | > 100 | > 100 | 86.7 | 72.4 | 76.6 | 55.4
